This experiment addresses T1, human TRPV3 (Homo sapiens, UniProt Q8NET8).
T1 construct: expressed in transfected cells; host or cells: HEK293
T1 sequence (Q8NET8 1-790): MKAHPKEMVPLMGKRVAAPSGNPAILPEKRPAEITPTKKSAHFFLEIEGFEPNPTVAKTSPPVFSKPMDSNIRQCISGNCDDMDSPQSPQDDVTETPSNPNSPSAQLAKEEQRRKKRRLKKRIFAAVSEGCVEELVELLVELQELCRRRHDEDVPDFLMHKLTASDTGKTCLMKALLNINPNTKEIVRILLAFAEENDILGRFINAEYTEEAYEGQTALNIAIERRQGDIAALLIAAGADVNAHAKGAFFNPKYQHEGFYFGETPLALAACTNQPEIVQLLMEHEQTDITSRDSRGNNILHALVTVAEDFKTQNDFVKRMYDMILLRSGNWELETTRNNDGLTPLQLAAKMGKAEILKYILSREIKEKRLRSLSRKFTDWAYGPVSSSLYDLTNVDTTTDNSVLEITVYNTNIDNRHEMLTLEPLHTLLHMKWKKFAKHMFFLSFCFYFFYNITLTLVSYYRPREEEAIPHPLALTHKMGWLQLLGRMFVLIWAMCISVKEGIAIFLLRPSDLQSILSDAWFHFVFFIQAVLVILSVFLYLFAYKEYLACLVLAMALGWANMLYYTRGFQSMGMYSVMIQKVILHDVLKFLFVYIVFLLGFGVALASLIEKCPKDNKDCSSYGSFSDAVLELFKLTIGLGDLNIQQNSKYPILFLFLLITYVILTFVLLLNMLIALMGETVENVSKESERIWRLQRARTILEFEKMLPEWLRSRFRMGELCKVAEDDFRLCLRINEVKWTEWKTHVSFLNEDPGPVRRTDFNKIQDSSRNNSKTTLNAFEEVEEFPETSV
Nature of the experiment: Calcium flux assay (FLIPR TETRA), recombinant HEK293 cells expressing TRPV3, 2-APB response. It counts as cell-based. To be noted: 2-APB at its EC80. The method in brief:
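Response is the peak fluorescence increase over baseline, as a percentage of the compound-free response to 2-APB at EC80. Calcium flux recorded on FLIPR TETRA in stable human or mouse TRPV3 HEK293 cells after 90–120 min Calcium-4 dye loading.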
For orientation: A change in cytosolic calcium serves as a functional read-out for many receptors and channels.
Usually IC50 stands for the concentration at which inhibition is half-maximal. In the case of `COc1ncnc(OC)c1C(=O)Nc1nc(-c2ccc(C(F)(F)F)cn2)c([S+](C)[O-])s1` (centres unmarked) [Example 113, 4,6-dimethoxy-N-[5-methylsulfinyl-4-[5-(trifluoromethyl)-2-pyridyl]-1,3-thiazol-2-yl]pyrimidine-5-carboxamide], the IC50 is 500 to 1000 nM. For the molecule `COc1ncnc(OC)c1C(=O)Nc1nc(C(F)(F)F)c(-c2ccnc(C3(C#N)CC3)c2)s1` [Example 151, N-{5-[2-(1-cyanocyclopropyl)pyridin-4-yl]-4-(trifluoromethyl)-1,3-thiazol-2-yl}-4,6-dimethoxypyrimidine-5-carboxamide], the IC50 was below 50 nM. In the case of `COc1ncnc(OC)c1C(=O)Nc1nc(C(F)(F)F)c(/C(=N/O)c2ccccn2)s1` [Example 128, N-{5-[(E)-(hydroxyimino)(pyridin-2-yl)methyl]-4-(trifluoromethyl)-1,3-thiazol-2-yl}-4,6-dimethoxypyrimidine-5-carboxamide] it was 100 to 500 nM; in that of `COc1ncnc(OC)c1C(=O)Nc1nc(C(F)(F)F)c(-c2ccc(Cl)cn2)s1` [Example 46, N-[5-(5-chloropyridin-2-yl)-4-(trifluoromethyl)-1,3-thiazol-2-yl]-4,6-dimethoxypyrimidine-5-carboxamide], below 50 nM; in that of `COc1ncc(-c2sc(NC(=O)c3c(OC)ncnc3OC)nc2C(F)(F)F)cc1C#N` [Example 184, N-[5-(5-cyano-6-methoxypyridin-3-yl)-4-(trifluoromethyl)-1,3-thiazol-2-yl]-4,6-dimethoxypyrimidine-5-carboxamide], below 50 nM. Consider `COc1ncnc(OC)c1C(=O)Nc1nc(C(F)(F)F)c(CCO)s1` [Example 22, N-[5-(2-hydroxyethyl)-4-(trifluoromethyl)-1,3-thiazol-2-yl]-4,6-dimethoxypyrimidine-5-carboxamide], for which the concentration for half-maximal inhibition (IC50) was above 1000 nM. In the case of `COc1ncnc(OC)c1C(=O)Nc1nc(C(F)(F)F)c(CN2CCOCC2)s1` [Example 50, 4,6-dimethoxy-N-[5-(morpholin-4-ylmethyl)-4-(trifluoromethyl)-1,3-thiazol-2-yl]pyrimidine-5-carboxamide] it was above 1000 nM; in that of `COc1ncnc(OC)c1C(=O)Nc1nc(C(F)(F)F)c(C2COC(C)(C)O2)s1` (centres unmarked) [Example 35, N-[5-(2,2-dimethyl-1,3-dioxolan-4-yl)-4-(trifluoromethyl)-1,3-thiazol-2-yl]-4,6-dimethoxypyrimidine-5-carboxamide], 100 to 500 nM; in that of `COc1ncnc(OC)c1C(=O)Nc1nc(C(F)(F)F)c(C(=O)c2ccccc2)s1` [Example 121, N-[5-benzoyl-4-(trifluoromethyl)-1,3-thiazol-2-yl]-4,6-dimethoxypyrimidine-5-carboxamide], 50 to 100 nM.

Turning to `COc1ncnc(OC)c1C(=O)Nc1nc(C(F)(F)F)c(CN2CCCC2)s1` [Example 49, 4,6-dimethoxy-N-[5-(pyrrolidin-1-ylmethyl)-4-(trifluoromethyl)-1,3-thiazol-2-yl]pyrimidine-5-carboxamide], the IC50 is 500 to 1000 nM.

Consider `COc1ncnc(OC)c1C(=O)Nc1nc(-c2ccc(C(F)(F)F)cn2)c(S(=O)(=O)c2ccc(C)cc2)s1` [Example 109, 4,6-dimethoxy-N-[5-(p-tolylsulfonyl)-4-[5-(trifluoromethyl)-2-pyridyl]-1,3-thiazol-2-yl]pyrimidine-5-carboxamide], for which the IC50 was 100 to 500 nM. To `COc1ncnc(OC)c1C(=O)Nc1nc(C(F)(F)F)c(C(O)C(C)(C)C)s1` (centres unmarked) [Example 123, N-[5-(1-hydroxy-2,2-dimethylpropyl)-4-(trifluoromethyl)-1,3-thiazol-2-yl]-4,6-dimethoxypyrimidine-5-carboxamide] belongs 100 to 500 nM; to `COc1ncnc(OC)c1C(=O)Nc1nc(C(C)(C)C)c(C#N)s1` [Example 189, N-(4-tert-butyl-5-cyano-1,3-thiazol-2-yl)-4,6-dimethoxypyrimidine-5-carboxamide], below 50 nM; to `COc1ncnc(OC)c1C(=O)Nc1nc(C(F)(F)F)c(/C(=N/O)c2ccccc2)s1` [Example 126, N-{5-[(E)-(hydroxyimino)(phenyl)methyl]-4-(trifluoromethyl)-1,3-thiazol-2-yl}-4,6-dimethoxypyrimidine-5-carboxamide], below 50 nM. In the case of `COc1ncnc(OC)c1C(=O)Nc1nc(C(F)(F)F)c(-c2cn(C)nc2C(F)(F)F)s1` [Example 186, 4,6-dimethoxy-N-{5-[1-methyl-3-(trifluoromethyl)-1H-pyrazol-4-yl]-4-(trifluoromethyl)-1,3-thiazol-2-yl}pyrimidine-5-carboxamide] it was below 50 nM; in that of `COCCCc1sc(NC(=O)c2c(OC)ncnc2OC)nc1C(F)(F)F` [Example 16, 4,6-dimethoxy-N-[5-(3-methoxypropyl)-4-(trifluoromethyl)-1,3-thiazol-2-yl]pyrimidine-5-carboxamide], below 50 nM.

In the case of `COc1ncnc(OC)c1C(=O)Nc1nc(C(F)(F)F)c(-c2ccccn2)s1` [Example 45, 4,6-dimethoxy-N-[5-(pyridin-2-yl)-4-(trifluoromethyl)-1,3-thiazol-2-yl]pyrimidine-5-carboxamide], the half-maximal inhibitory concentration (IC50) is 100 to 500 nM. On to `COc1ncnc(OC)c1C(=O)Nc1nc(C(F)(F)F)c(C2OCCO2)s1` [Example 138, N-[5-(1,3-dioxolan-2-yl)-4-(trifluoromethyl)-1,3-thiazol-2-yl]-4,6-dimethoxypyrimidine-5-carboxamide], for which the IC50 fell in the range of 100 to 500 nM. In the case of `COc1ncnc(OC)c1C(=O)Nc1nc(C(F)(F)F)c(C#C[Si](C)(C)C)s1` [Example 10, 4,6-dimethoxy-N-{4-(trifluoromethyl)-5-[(trimethylsilyl)ethynyl]-1,3-thiazol-2-yl}pyrimidine-5-carboxamide] it was below 50 nM.

As for `COc1ncnc(OC)c1C(=O)Nc1nc(-c2ccc(C(F)(F)F)cn2)c(C=O)s1` [Example 76, N-{5-formyl-4-[5-(trifluoromethyl)pyridin-2-yl]-1,3-thiazol-2-yl}-4,6-dimethoxypyrimidine-5-carboxamide], the IC50 fell in the range of 100 to 500 nM. Take `COc1ncnc(OC)c1C(=O)Nc1nc(C(F)(F)F)c(C2CCOCC2)s1` [Example 39, 4,6-dimethoxy-N-[5-(tetrahydro-2H-pyran-4-yl)-4-(trifluoromethyl)-1,3-thiazol-2-yl]pyrimidine-5-carboxamide]: the IC50 lay within 50 to 100 nM. In the case of `COc1ncnc(OC)c1C(=O)Nc1nc(C(F)(F)F)c(-c2ccnc(CC#N)c2)s1` [Example 152, N-{5-[2-(cyanomethyl)pyridin-4-yl]-4-(trifluoromethyl)-1,3-thiazol-2-yl}-4,6-dimethoxypyrimidine-5-carboxamide] it was 100 to 500 nM. In the case of `COc1ncnc(OC)c1C(=O)Nc1nc(C(F)(F)F)c(C(=O)c2ccc(F)cn2)s1` [Example 131, N-{5-[(5-fluoropyridin-2-yl)carbonyl]-4-(trifluoromethyl)-1,3-thiazol-2-yl}-4,6-dimethoxypyrimidine-5-carboxamide] it was below 50 nM; in that of `COc1ncnc(OC)c1C(=O)Nc1nc(C(F)(F)F)c(C2=COCCC2)s1` [Example 147, N-[5-(3,4-dihydro-2H-pyran-5-yl)-4-(trifluoromethyl)-1,3-thiazol-2-yl]-4,6-dimethoxypyrimidine-5-carboxamide], 50 to 100 nM. To `COc1ncnc(OC)c1C(=O)Nc1nc(/C=C/c2ccc(F)cc2)cs1` [Example 106, N-{4-[(E)-2-(4-fluorophenyl)ethenyl]-1,3-thiazol-2-yl}-4,6-dimethoxypyrimidine-5-carboxamide] belongs 500 to 1000 nM; to `COc1ncnc(OC)c1C(=O)Nc1nc(C(F)(F)F)c(C(O)c2ccccc2)s1` (centres unmarked) [Example 120, N-{5-[hydroxy(phenyl)methyl]-4-(trifluoromethyl)-1,3-thiazol-2-yl}-4,6-dimethoxypyrimidine-5-carboxamide], 100 to 500 nM. Regarding `COc1ncnc(OC)c1C(=O)Nc1nc(-c2ccc(C(F)(F)F)cn2)c(C2(C)OCCO2)s1` [Example 90, 4,6-dimethoxy-N-{5-(2-methyl-1,3-dioxolan-2-yl)-4-[5-(trifluoromethyl)pyridin-2-yl]-1,3-thiazol-2-yl}pyrimidine-5-carboxamide], the half-maximal inhibitory concentration (IC50) is 50 to 100 nM. Consider `COc1ncnc(OC)c1C(=O)Nc1nc(C(F)(F)F)c(S(=O)(=O)Cc2ccccc2)s1` [Example 111, N-[5-benzylsulfonyl-4-(trifluoromethyl)-1,3-thiazol-2-yl]-4,6-dimethoxy-pyrimidine-5-carboxamide], for which the IC50 was in the range of 500 to 1000 nM. To `COc1ncnc(OC)c1C(=O)Nc1nc(C(F)(F)F)c(-c2cn(C)nc2C(C)C)s1` [Example 181, 4,6-dimethoxy-N-{5-[1-methyl-3-(propan-2-yl)-1H-pyrazol-4-yl]-4-(trifluoromethyl)-1,3-thiazol-2-yl}pyrimidine-5-carboxamide] belongs 50 to 100 nM.

For the origin of these results see US20180243298A1, “TRPV3 MODULATORS” (AbbVie Inc., priority 2015, published 2018).
